1 compound from ChEMBL document CHEMBL1641416, “2-Arylbenzoxazoles as CETP inhibitors: raising HDL-C in cynoCETP transgenic mice” (Bioorg Med Chem Lett, 2011) can be followed below.

The nature of series [1]: in vivo. The following applies: mouse.
Description: Half life in wild type mouse
Series [2] in a line: in vivo. Conditions: mouse, po.
Description: Oral bioavailability in wild type mouse
The nature of series [3]: in vivo. Conditions: mouse. This is another data set of the same source.
Description: Clearance in wild type mouse

Usually half-life stands for how long it takes for the measured level to halve. Higher therefore signals slow loss. Usually bioavailability stands for dose-corrected exposure relative to a reference, in per cent. Higher therefore signals good availability. A word on the clearance: it is a measure of how efficiently the substance is removed, as volume per time. Read a low clearance as a low capacity for elimination. Regarding `Cc1cc(C#N)cc2nc(-c3ccc(NC(=O)CN4CCN(c5ccc(C(F)(F)F)cc5)CC4)cc3)oc12`, in series [1], the half-life was 4.1 h. For the same compound, in series [2], the bioavailability was 56%. Also, the clearance in series [3] was determined as 25 mL/min/kg.
